Measurements reported in publication PMC3434127, “Insights into Phosphate Cooperativity and Influence of Substrate Modifications on Binding and Catalysis of Hexameric Purine Nucleoside Phosphorylases” (PLoS ONE, 2012).

Target: T1, BsPNP233 (Bacillus subtilis, UniProt O34925)
T1 construct: gene deoD; full length, 233 residues, N-terminal His-tag kept (eight tag residues seen in one crystal form), recombinant from E. coli, homohexamer (D3); active site at dimer interface
T1 sequence (O34925 1-233): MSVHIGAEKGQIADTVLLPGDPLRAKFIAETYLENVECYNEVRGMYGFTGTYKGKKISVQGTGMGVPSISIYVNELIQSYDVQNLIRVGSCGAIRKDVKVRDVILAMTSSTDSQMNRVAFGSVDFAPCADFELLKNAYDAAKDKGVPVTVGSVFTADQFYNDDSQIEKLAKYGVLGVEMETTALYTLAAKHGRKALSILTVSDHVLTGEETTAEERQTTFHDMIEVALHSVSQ
Test: X-ray crystal structure (soaked crystal)
Assay type: binding

[1] = crystals grown in 0.1 M sodium acetate pH 4.6, 3.2 M NaCl, 5% glycerol, 291 K, nucleoside site

| Structure (SMILES) | X-ray crystal structure (soaked crystal) [1] | further results |
| --- | --- | --- |
| Nc1ncnc2c1ncn2[C@@H]1O[C@H](CO)[C@@H](O)[C@H]1O [Ado, adenosine] | The base moiety of adenosine (Ado) binds to the BsPNP233 active site |  |
| O=c1[nH]cnc2nc[nH]c12 [Hyp, hypoxanthine] |  | X-ray crystal structure (soaked crystal) (crystals grown in 0.1 M sodium acetate pH 4.6, 3.2 M NaCl, 5% glycerol, 291 K, purine-binding site, glycerol in ribose site): crystal structures of BsPNP233 in complex with hypoxanthine (Hyp) and adenine (Ade) |
| Nc1nc2c(ncn2COCCO)c(=O)[nH]1 [ACV, aciclovir] |  | X-ray crystal structure (soaked crystal) (crystals grown in 0.1 M sodium acetate pH 4.6, 3.2 M NaCl, 5% glycerol, 291 K, nucleoside site, two conformations of the acyclic chain, half-occupancy phosphate modelled): Aciclovir binds to the BsPNP233 nucleoside binding site |
| Nc1nc(F)nc2c1ncn2[C@@H]1O[C@H](CO)[C@@H](O)[C@H]1O [F-Ado, 2-fluoradenosine] | The crystal structure of BsPNP233-(F-Ado) complex had two BsPNP233 subunits per asymmetric unit |  |
| Nc1nc2c(nc(Br)n2[C@@H]2O[C@H](CO)[C@@H](O)[C@H]2O)c(=O)[nH]1 [Br-Guo, 8-bromoguanosine] | The ribosyl moiety of Br-Guo presents a typical C4′–endo conformation and binds to the active site |  |
| Nc1nc2c(ncn2COC(CO)CO)c(=O)[nH]1 [GCV, ganciclovir] | GCV binds to the nucleoside binding site of BsPNP233 |  |
| Nc1ncnc2[nH]cnc12 [Ade, adenine] |  | X-ray crystal structure (soaked crystal) (purine-binding site, solved without (4DAO) and with sulfate (form I, 4D8V)): The BsPNP233-Ade binary complex was solved with (BsPNP233-Ade-SO4) or without (BsPNP233-Ade) sulfate ion |
| Nc1nc(Cl)c2ncn([C@@H]3O[C@H](CO)[C@@H](O)[C@H]3O)c2n1 [Cl-Guo, 6-chloroguanosine] | The molecule Cl-Guo displays a similar binding mode to that observed for dGuo |  |
| Nc1ncnc2c1ccn2[C@@H]1O[C@H](CO)[C@@H](O)[C@H]1O [TBN, tubercidin] | TBN presented an interaction mode very similar to that seen for the natural substrate adenosine |  |
